Earlier results in patent US12144787B2, “Method of treating patients with a mutation in cyclin-dependent kinase-like 5 (CDKL5)” (ZOGENIX INTERNATIONAL LIMITED, priority 2019, dated 2024).

What was measured:
[1] = system: self-induced photosensitive seizures; details: four cases; patients staring into bright lights or the sun
[2] = system: pattern sensitivity-induced seizures; details: one child, seizures resistant to anticonvulsive treatment
[3] = system: refractory epilepsy with self-induced seizures; details: children with refractory epilepsy; dose 0.5 to 1 mg/kg/day
[4] = system: compulsive respiratory stereotypies; details: open label, 8 children; subset of patients

Q: What does the source list for `CCNC(C)Cc1cccc(C(F)(F)F)c1` (racemic) [fenfluramine, (RS)—N-ethyl-1-[3-(trifluoromethyl)phenyl]propan-2-amine]?
A: response of self-induced photosensitive seizures to treatment [1]: responded to treatment; effect on self-induced seizures [2]: successfully terminated these self-induced seizures; number of seizures experienced by the patients [3]: reduction in the number of seizures; effect on compulsive respiratory stereotypies [4]: some beneficial effects
